Results from patent publication US20110124523A1, “High Throughput Method for Detecting Apoptosis of Embryonic Stages of Metazoan Helminthic Parasites” (INSTITUTE OF LIFE SCIENCES, priority 2009, published 2011).
“And” between values parts separate entries of the source, which are not always exact repeats. Identical values can stand only once.

Experiments:
[1] = tested on: embryonic stages of S. digitata; assay: Intra cellular expression of CED-9 protein, flow cytometry; format: cell-based, Setaria digitata; details: 24 hr
Experimental: Adult female filarial worms Setaria digitata were collected from the peritoneum of cattle, slaughtered at a nearby abattoir in sterile Hanks Balanced Salt Solution (HBSS) medium (Sigma H 2387-1L) and transported to the laboratory in a sterile container. The medium containing 1% glucose (Sigma G 7528), Penicillin 100 units/ml, Streptomycin 100 μg/ml (Sigma P 4333). And Amphotericin-B 0.25 μg/ml (Sigma A 2942) was buffered with NaHCO3 (Sigma S 5761). About 5 to 7 worms were taken in a petridish, washed three times in medium, dissected into small pieces in 10 ml of medium under sterile conditions and incubated at 37° C. for 30 minutes to allow the release of embryonic stages (eggs and microfilariae) into the medium. The embryonic stages were harvested into sterile 15 ml. centrifuge tubes and washed three times by centrifuging at 300 g for 10 minutes each with medium and the final pellet was suspended in 1 ml. of RPMI-1640 medium (Sigma R 8005) supplemented with 10% FBS (Sigma F 2442) The number of embryonic stages of S. digitata in the above preparation were counted using light microscope, and the suspension was taken in RPMI-1640 medium containing 10% FBS at 1×10^5 embryonic stages/ml. One ml. each was dispensed into individual wells of a 24 well tissue culture plate. One set of wells was taken as untreated control containing only medium with 10% FBS. […] Motility of the Mf was scored under an inverted microscope. After appropriate treatment and incubation, each set of the cultured embryonic stages of S. digitata were harvested from the 24 well tissue culture plate separately in 15 ml. sterile centrifuge tubes, washed with PBS twice and stained as per requirement following manufacturer's instructions as described below. This was followed by two times washing with PBS and final suspension of the stained embryonic stages was taken in 0.5 ml of sheath fluid (BD Biosciences 342003) before their acquisition in the flow cytometer (BD FACS Calibur, Becten and Dickinson, USA). Analysis was performed on 10,000-acquired events depicted as Dot Plots and Histogram Plots using Cellquest Pro soft ware. All plots were representative of at least 3 experiments. The distinctly clustered populations obtained consistently in the Dot plots for the intra uterine embryonic stages of S. digitata (FIG. 1 a) were gated for Mfs (R-1) and eggs (R-2 and R-3) and analyzed for different assays for apoptosis as described below. After in vitro culture for 24 hours with apoptosis inducing reagents the embryonic stages were harvested in 15 ml. sterile centrifuge tubes and fixed for 60 minutes at 0° C. in 1% paraformaldehyde (Sigma P 6148) in PBS. The suspension was washed first with PBS and then with 1× permeabilisation buffer (eBioscience 00-8333-56) and finally resuspended in 100 μl of 1× permeabilisation buffer at 1×10^5 embryonic stages per ml. The intracellular expression of CED-9 was scored by incubation of the fixed and permeabilised embryonic stages with primary goat antibodies—anti CED-9 (Santacruz sc-9202) followed by probing with PE conjugated secondary anti goat IgG-PE (Santacruz sc-3747) antibodies. Incubation of both primary and secondary antibodies (both 1/100 diluted) was done successively in 1× permeabilisation buffer (e Bioscience 00-8333-56) for 1 hr and 45 minutes respectively. The suspension of stained embryonic stages was then washed with PBS twice and finally reading was taken by flow cytometry or confocal microscopy.

[2] = tested on: embryonic stages of S. digitata; assay: Fragmentation of chromosomal DNA, TUNEL staining; format: cell-based, Setaria digitata; details: for GMI (Geometric Mean Intensity) of Fluorescence, TUNEL Staining: 24 hr; for induction of DNA fragmentation (result in words): Mf stages and eggs, TUNEL assay
Experimental: Adult female filarial worms Setaria digitata were collected from the peritoneum of cattle, slaughtered at a nearby abattoir in sterile Hanks Balanced Salt Solution (HBSS) medium (Sigma H 2387-1L) and transported to the laboratory in a sterile container. The medium containing 1% glucose (Sigma G 7528), Penicillin 100 units/ml, Streptomycin 100 μg/ml (Sigma P 4333). And Amphotericin-B 0.25 μg/ml (Sigma A 2942) was buffered with NaHCO3 (Sigma S 5761). About 5 to 7 worms were taken in a petridish, washed three times in medium, dissected into small pieces in 10 ml of medium under sterile conditions and incubated at 37° C. for 30 minutes to allow the release of embryonic stages (eggs and microfilariae) into the medium. The embryonic stages were harvested into sterile 15 ml. centrifuge tubes and washed three times by centrifuging at 300 g for 10 minutes each with medium and the final pellet was suspended in 1 ml. of RPMI-1640 medium (Sigma R 8005) supplemented with 10% FBS (Sigma F 2442) The number of embryonic stages of S. digitata in the above preparation were counted using light microscope, and the suspension was taken in RPMI-1640 medium containing 10% FBS at 1×10^5 embryonic stages/ml. One ml. each was dispensed into individual wells of a 24 well tissue culture plate. One set of wells was taken as untreated control containing only medium with 10% FBS. […] Motility of the Mf was scored under an inverted microscope. After appropriate treatment and incubation, each set of the cultured embryonic stages of S. digitata were harvested from the 24 well tissue culture plate separately in 15 ml. sterile centrifuge tubes, washed with PBS twice and stained as per requirement following manufacturer's instructions as described below. This was followed by two times washing with PBS and final suspension of the stained embryonic stages was taken in 0.5 ml of sheath fluid (BD Biosciences 342003) before their acquisition in the flow cytometer (BD FACS Calibur, Becten and Dickinson, USA). Analysis was performed on 10,000-acquired events depicted as Dot Plots and Histogram Plots using Cellquest Pro soft ware. All plots were representative of at least 3 experiments. The distinctly clustered populations obtained consistently in the Dot plots for the intra uterine embryonic stages of S. digitata (FIG. 1 a) were gated for Mfs (R-1) and eggs (R-2 and R-3) and analyzed for different assays for apoptosis as described below. Presence of fragmentation of chromosomal DNA was detected by TUNEL staining. Briefly, the treated embryonic stages were harvested, fixed with 1% Para formaldehyde followed by washing with PBS and stored in 70% ethanol at −20° C.

Row | Compound | GMI (Geometric Mean Intensity) of Fluorescence, CED-9 Expression ([1]; Eggs, 10 μM) | GMI (Geometric Mean Intensity) of Fluorescence, CED-9 Expression ([1]; Microfilariae, 10 μM) | GMI (Geometric Mean Intensity) of Fluorescence, TUNEL Staining ([2]; Eggs, 10 μM) | induction of DNA fragmentation (result in words) [2] | GMI (Geometric Mean Intensity) of Fluorescence, TUNEL Staining ([2]; Microfilariae, 10 μM) | efficiency in induction of apoptosis (comparison in words) ([2]; Plumbagin compared with H2O2) | GMI (Geometric Mean Intensity) of Fluorescence, CED-9 Expression ([1]; Eggs, 1 μM) | GMI (Geometric Mean Intensity) of Fluorescence, CED-9 Expression ([1]; Microfilariae, 1 μM) | GMI (Geometric Mean Intensity) of Fluorescence, TUNEL Staining ([2]; Eggs, 1 μM) | GMI (Geometric Mean Intensity) of Fluorescence, TUNEL Staining ([2]; Microfilariae, 1 μM)
1 | OO [H2O2] | 115.67 and 123.32 and 113.26 | 15.66 and 17.26 and 16.13 | 70.85 and 71.36 and 72.56 | dose dependent induction of DNA fragmentation | 13.62 and 12.52 and 14.16 | – | – | – | – | –
2 | CC1=CC(=O)c2c(O)cccc2C1=O [Plumbagin] | 206.36 and 202.92 and 205.16 | 30.96 and 33.25 and 32.27 | 104.33 and 109.68 and 105.32 | dose dependent induction of DNA fragmentation | 40.65 and 38.97 and 45.76 | more efficient than H2O2 in induction of apoptosis | – | – | – | –
3 | CN[C@@H]1C[C@H]2O[C@@](C)([C@@H]1OC)n1c3ccccc3c3c4c(c5c6ccccc6n2c5c31)C(=O)NC4 [Staurosporine] | – | – | – | – | – | – | 106.36 and 109.16 and 107.34 | 10.32 and 9.56 and 11.02 | 65.77 and 60.33 and 71.25 | 10.67 and 10.02 and 12.15
